Assay results taken from patent publication US11795510B2, “Identification of epigenomic reprogramming in cancer and uses thereof” (The Johns Hopkins University, priority 2016, dated 2023).
“Also recorded” adds a separate entry of the source.

Legend:
[1] = biological target: T1, 6-phosphogluconate dehydrogenase (PGD) (Homo sapiens, UniProt P52209); experiment: Steady state LC-HRMS metabolite profiling (glycolytic/PPP metabolites); format: cell-based
T1 construct: endogenous in cells; host or cells: low-passage rapid-autopsy PDAC cell lines (e.g. A38Lg, A38Per, A13 subclones)
T1 sequence (P52209 1-483): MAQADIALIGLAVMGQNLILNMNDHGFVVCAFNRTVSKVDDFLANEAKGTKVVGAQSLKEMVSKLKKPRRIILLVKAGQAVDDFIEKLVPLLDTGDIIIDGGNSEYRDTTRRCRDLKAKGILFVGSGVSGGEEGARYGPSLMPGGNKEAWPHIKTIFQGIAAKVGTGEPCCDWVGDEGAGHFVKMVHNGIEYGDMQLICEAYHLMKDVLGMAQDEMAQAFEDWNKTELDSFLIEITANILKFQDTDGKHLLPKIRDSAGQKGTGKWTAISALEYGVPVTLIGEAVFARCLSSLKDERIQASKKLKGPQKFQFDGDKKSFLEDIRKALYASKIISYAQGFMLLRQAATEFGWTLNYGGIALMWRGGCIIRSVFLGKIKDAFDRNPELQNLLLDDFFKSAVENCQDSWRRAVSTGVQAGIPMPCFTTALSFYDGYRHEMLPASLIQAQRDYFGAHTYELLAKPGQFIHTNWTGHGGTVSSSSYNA
Description: Tissue samples and cell lines were previously collected from PDAC patients by rapid autopsy, sequenced-validated, and monitored for mycoplasma as previously described. Low passage (2-17) rapid autopsy cell lines were cultured at 37° C. in DMEM with 10% fetal bovine serum (FBS, Gibco). For MTT assays, 15,000 cells/well were plated into 96 well plates in triplicate, treated 12 hours later, and assayed after 24 hr (glucose responses) or 6 days (chemotherapy) with CellTiter96 (Promega). For glucose response assays, nutrient-deplete DMEM (no glucose, glutamine, pyruvate, or serum) was used with addition of glucose as indicated. […] Cells were then washed with PBS, trypsinized, and viable cells counted with a hemocytometer. Glucose uptake and lactate secretion were measured with a YSI 7100 Bioanalyzer as described in the supplementary methods. […]
LC-HRMS Metabolite Profiling. LC-HRMS samples were prepared and analyzed as described in Liu et al. (Development and quantitative evaluation of a high-resolution metabolomics technology. Anal Chem 86, 2175-84 (2014)). […] Additional replicates were also included and counted at the end of the experiment for normalization. […] Pellets were reconstituted into a volume normalized to protein content (15 uL of 1:1 acetonitrile:methanol and 15 uL of water was used per 1 mg protein) and analyzed by LC-QE-MS. […]

[2] = system: distant metastatic subclones; experiment: 3-D suspension tumorsphere assay, distant metastatic subclones; format: cell-based, human
Description: 3-D matrigel assays were adapted from Cheung et al. (Control of alveolar differentiation by the lineage transcription factors GATA6 and HOPX inhibits lung adenocarcinoma metastasis. Cancer Cell 23, 725-38 (2013)). Briefly, 2-D cultures were trypsinized into single cells, 4,000cells/mL were suspended and thoroughly mixed in ice-cold DMEM containing 5% matrigel (BD systems) and 2% FBS (+/−DMSO/6AN as needed), 500 ul plated in quadruplicate into 24 well ultra-low attachment plates, and incubated for at least 7 days to allow tumor growth. Well-formed tumors were then counted and representative photographs taken with an EVOS instrument. 3-D suspension tumorsphere assays were performed with 20,000 starting cells/well in ultra-low attachment 6 well plates as described, and tumors counted/photographed after at least 7 days of tumor growth.

[3] = system: H3K9Me2 and H3K27Ac across CDH2 and TOP2B gene loci; experiment: ChIP-qPCR across CDH2 and TOP2B loci; format: cell-based, human
Description: Tests for statistical significance (two-tailed students t-test) were performed on data collected from technical replicate (performed in parallel at the same time) or biological replicate (performed at different times) experiments as indicated in the figure legends using excel software for western blot densitometry, MTT assays, and tumor measurements. Whole genome bisulfite sequencing and RNA-seq were performed with HiSeq instruments (Illumina) as described in Hansen et al. (Increased methylation variation in epigenetic domains across cancer types. Nat Genet 43, 768-75 (2011)). ChIP assays were performed as previously described for fixed cells with sonication. For ChIP-qPCR, equal amounts of paired input/IP DNA were amplified by real-time PCR (Roche LightCycler96) and fold enrichments calculated. Primer sequences are listed in Supplementary Table 11. […] IP sequencing reads were normalized to their corresponding inputs. Sequencing procedures, bioinformatics methods including domain calls, and statistical analyses are described in detail within the supplementary methods section.

NC(=O)c1ccc(N)nc1 [6AN, 6-aminonicotinamide]
steady state levels of glucose and metabolites directly upstream of the PGD reaction (6PG, G1,5L) [1]: dramatically elevated; also recorded: greatly increased
steady state levels of metabolites downstream of the PGD reaction [1]: corresponding reductions
tumor formation in 3-D suspension tumorsphere assays [2]: selectively and strongly blocked tumor formation; also recorded: ablated tumor formation
H3K9Me2 across CDH2/TOP2B loci (ChIP-qPCR) ([3]; matched lung metastasis A38Lg): enrichment of H3K9Me2 across both loci; also recorded: induced spreading of H3K9Me2 across the locus
H3K27Ac over the CDH2 genic region (ChIP-qPCR) ([3]; matched lung metastasis A38Lg): concordant reductions; also recorded: corresponding loss of H3K27Ac
H3K9Me2 and H3K27Ac enrichments across CDH2/TOP2B loci (ChIP-qPCR), control vs 6AN ([3]; peritoneal subclone A38Per): nearly identical enrichments; also recorded: no effect
